Laboratory results taken from the supplement of paper PMC10307832.

Key:
Experiment in all cases: relative viability (nuclei count vs DMSO), 5 days (fraction); higher = more cells survive
RAF265 + Olaparib = compound: Cn1c(Nc2ccc(C(F)(F)F)cc2)nc2cc(Oc3ccnc(-c4ncc(C(F)(F)F)[nH]4)c3)ccc21 [RAF265] + O=C(c1cc(Cc2n[nH]c(=O)c3ccccc23)ccc1F)N1CCN(C(=O)C2CC2)CC1 [Olaparib] (partner 8 µM)
Outline: (§1)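 Values are medians from duplicate plates. Each reflects relative viability, defined as the nuclei count of treated wells over that of vehicle wells. Lung cancer cell lines in 1536-well plates were pin-tool dosed one day after seeding with one drug alone or with a fixed anchor-drug dose plus five library-drug doses (not always all listed) in √10 steps, then fixed, stained and imaged at 4× after 5 days.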

Doramapimod + AZD7762 = compound: Cc1ccc(-n2nc(C(C)(C)C)cc2NC(=O)Nc2ccc(OCCN3CCOCC3)c3ccccc23)cc1 [Doramapimod] + NC(=O)Nc1cc(-c2cccc(F)c2)sc1C(=O)N[C@H]1CCCNC1 [AZD7762] (partner 0.2 µM)
Outline: as §1

IPA-3 + Dasatinib = compound: C1=CC=C2C(=C1)C=CC(=C2SSC3=C(C=CC4=CC=CC=C43)O)O [IPA-3] + Cc1nc(Nc2ncc(C(=O)Nc3c(C)cccc3Cl)s2)cc(N2CCN(CCO)CC2)n1 [Dasatinib] (partner 0.075 µM)
Outline: as §1

IPA-3 + AZD7762 = compound: C1=CC=C2C(=C1)C=CC(=C2SSC3=C(C=CC4=CC=CC=C43)O)O [IPA-3] + NC(=O)Nc1cc(-c2cccc(F)c2)sc1C(=O)N[C@H]1CCCNC1 [AZD7762] (partner 0.2 µM)
Outline: as §1

Row | Cell Line | relative viability (RAF265 + Olaparib; first compound 0.01 µM) | relative viability (RAF265 + Olaparib; first compound 0.03162 µM) | relative viability (RAF265 + Olaparib; first compound 0.1 µM) | relative viability (RAF265 + Olaparib; first compound 0.3162 µM) | relative viability (RAF265 + Olaparib; first compound 1 µM) | relative viability (Doramapimod + AZD7762; first compound 0.02 µM) | relative viability (Doramapimod + AZD7762; first compound 0.06325 µM) | relative viability (Doramapimod + AZD7762; first compound 0.2 µM) | relative viability (Doramapimod + AZD7762; first compound 0.6325 µM) | relative viability (Doramapimod + AZD7762; first compound 2 µM) | relative viability (IPA-3 + Dasatinib; first compound 0.2 µM) | relative viability (IPA-3 + Dasatinib; first compound 0.6325 µM) | relative viability (IPA-3 + Dasatinib; first compound 2 µM) | relative viability (IPA-3 + Dasatinib; first compound 6.325 µM) | relative viability (IPA-3 + Dasatinib; first compound 20 µM) | relative viability (IPA-3 + AZD7762; first compound 0.2 µM) | relative viability (IPA-3 + AZD7762; first compound 0.6325 µM) | relative viability (IPA-3 + AZD7762; first compound 2 µM) | relative viability (IPA-3 + AZD7762; first compound 6.325 µM) | relative viability (IPA-3 + AZD7762; first compound 20 µM)
1 | IA-LM | 0.745 | 0.81 | 0.832 | 0.681 | 0.61 |  |  |  |  |  |  |  |  |  |  |  |  |  |  | 
2 | NCI-H322M | 0.878 | 0.689 | 0.632 | 0.53 | 0.344 | 0.564 | 0.593 | 0.52 | 0.484 | 0.687 | 0.228 | 0.248 | 0.248 | 0.309 | 0.264 | 0.503 | 0.6 | 0.616 | 0.808 | 0.786
3 | NCI-H1792 | 0.474 | 0.291 | 0.279 | 0.262 | 0.0641 | 0.43 | 0.89 | 0.842 | 0.618 | 0.434 | 1.01 | 0.81 | 0.807 | 0.895 | 1.03 | 0.97 | 0.519 |  | 0.604 | 0.572
4 | LXF-289 | 1.08 | 1.06 | 0.998 | 0.748 | 0.551 | 1.07 | 1.16 | 1.14 | 1.1 | 1.12 | 0.279 | 0.264 | 0.28 | 0.176 | 0.237 | 1.22 | 1.01 | 1.17 | 1.25 | 1.22
5 | HCC-827 | 0.727 | 0.7 | 0.794 |  | 0.512 | 0.281 | 0.3 | 0.195 | 0.588 | 0.116 | 0.419 | 0.358 | 0.405 | 0.302 | 0.292 | 0.256 | 0.281 | 0.253 | 0.355 | 0.286
6 | EMC-BAC-2 | 0.576 | 0.43 | 0.407 | 0.371 | 0.167 | 1.07 | 1.16 | 1.07 | 1.07 | 0.965 | 0.309 | 0.458 | 0.302 | 0.311 | 0.292 | 1.15 | 1.17 | 1.12 | 1.08 | 1.16
7 | NCI-H520 | 0.366 | 0.316 | 0.322 | 0.301 | 0.255 |  |  |  |  |  | 0.311 | 0.194 | 0.185 | 0.18 | 0.179 |  |  |  |  | 
8 | NCI-H1755 | 0.879 | 0.788 | 0.909 | 0.717 | 0.499 | 0.428 | 0.5 | 0.379 | 0.477 | 0.412 | 0.512 | 0.44 | 0.371 | 0.426 | 0.472 | 0.55 | 0.448 | 0.434 | 0.486 | 0.476
9 | NCI-H1993 | 1.21 | 1.41 | 1.19 | 1.07 | 0.886 | 0.751 | 0.675 | 0.608 | 0.781 | 0.557 | 0.567 | 1.77 | 0.63 | 0.364 | 0.585 | 0.971 | 0.922 | 0.85 | 0.738 | 0.726
10 | NCI-H23 | 0.363 | 0.24 | 0.294 | 0.271 | 0.186 | 0.247 | 0.221 | 0.363 | 0.354 | 0.143 | 0.598 | 0.795 | 0.861 | 0.724 | 0.617 | 0.207 | 0.274 | 0.261 | 0.32 | 0.363
11 | SK-MES-1 | 0.582 | 0.308 | 0.229 | 0.208 | 0.204 |  |  |  |  |  | 0.339 | 0.329 | 0.47 | 0.333 | 0.44 |  |  |  |  | 
12 | NCI-H2023 | 0.491 | 0.452 | 0.544 | 0.524 | 0.374 |  |  |  |  |  | 0.816 | 0.513 | 0.68 | 0.493 | 0.679 |  |  |  |  | 
13 | NCI-H1299 | 0.984 | 0.906 | 0.949 | 0.625 | 0.664 |  |  |  |  |  |  |  |  |  |  |  |  |  |  | 
14 | NCI-H1563 |  |  |  |  |  |  |  |  |  |  | 0.418 | 0.506 | 0.447 | 0.537 | 0.442 |  |  |  |  | 
15 | NCI-H661 | 0.775 | 0.667 | 0.724 | 0.605 | 0.464 |  |  |  |  |  | 1.06 | 0.871 | 0.656 | 0.867 | 0.787 |  |  |  |  | 
16 | NCI-H1650 | 0.9 | 0.797 | 0.824 | 0.837 | 0.826 |  |  |  |  |  | 0.331 | 0.301 | 0.323 | 0.404 | 0.295 |  |  |  |  | 
17 | Calu-6 | 0.6 | 0.591 | 0.528 | 0.442 | 0.255 |  |  |  |  |  |  |  |  |  |  |  |  |  |  | 
18 | NCI-H1703 | 0.358 | 0.416 | 0.342 | 0.33 | 0.273 |  | 0.118 | 0.108 | 0.0991 | 0.113 |  |  |  |  |  | 0.119 | 0.121 | 0.126 | 0.145 | 0.133
19 | EBC-1 | 0.721 | 0.64 | 0.639 | 0.586 | 0.432 |  |  |  |  |  |  |  |  |  |  |  |  |  |  | 
20 | NCI-H1648 | 1.43 | 0.891 | 0.537 | 0.78 | 0.279 | 0.653 | 0.695 | 0.63 | 0.548 | 0.59 |  |  |  |  |  | 0.673 | 0.863 | 0.751 | 0.621 | 0.825
21 | COR-L23 | 0.395 | 0.329 | 0.305 | 0.307 | 0.184 |  |  |  |  |  | 0.679 | 0.506 | 0.503 | 0.46 | 0.125 |  |  |  |  | 
22 | HCC-44 | 0.977 | 0.985 | 0.998 | 0.984 | 1.01 | 1.06 | 1.02 | 1.04 | 1.01 | 1.07 |  |  |  |  |  | 0.963 | 0.998 | 1.02 | 1 | 0.907
23 | SW 1573 | 0.474 | 0.388 | 0.304 | 0.28 | 0.248 |  |  |  |  |  | 0.689 | 0.395 | 0.589 | 0.452 | 0.151 |  |  |  |  | 
24 | SK-LU-1 | 0.511 | 0.386 | 0.419 | 0.283 | 0.265 |  |  |  |  |  | 0.171 | 0.148 | 0.204 | 0.179 | 0.193 |  |  |  |  | 
25 | A549 | 0.41 | 0.367 | 0.404 | 0.0957 | 0.0721 |  |  |  |  |  |  |  |  |  |  |  |  |  |  | 
